# Measurements as given in patent publication US8916498B2, “Safening 6-(trisubstituted phenyl)-4-amino-2-pyridinecarboxylate herbicide injury on direct seeded and transplanted paddy rice” (priority 2008, dated 2014).
# Values joined by “and” are separate entries in the source; they are usually repeats but may differ in a detail not shown here. Identical values can stand only once.
# Legend:
# ECHCO = assay: Postemergence herbicidal safening in direct seeded rice, visual injury on weed; format: in vivo; conditions: alone, after 3 weeks
# CYPDI = assay: as above; format: in vivo; conditions: alone, after 3 weeks
# ORYSA (rice) = assay: Postemergence herbicidal safening in direct seeded rice, visual injury; conditions: for Visual Injury (%) ‘Lemont’ ORYSA Obs / ‘M202’ ORYSA Visual Injury (%) Obs: after 3 weeks
# From the text: A=observed efficacy of active ingredient A at the same concentration as used in the mixture.
# B=observed efficacy of active ingredient B at the same concentration as used in the mixture.
# SEBEX = assay: Postemergence herbicidal safening in direct seeded rice, visual injury on weed; format: in vivo; conditions: alone, after 3 weeks
# weed test plant species = assay: Herbicidal safening in transplanted paddy rice, visual injury on weeds; format: in vivo; conditions: after 3 weeks; for Visual Injury (%) CYPDI Obs: Cyperus difformis; for Visual Injury (%) MOOVA Obs: Monochoria vaginalis
# Procedure: Evaluation of Herbicidal Safening in Transplanted Paddy Rice
# The prepared mud was dispensed in 250 mL aliquots into 480 mL non-perforated plastic pots with a surface area of 91.6 cm^2 leaving a headspace of 3 cm in each pot. Rice seeds were planted in Sun Gro MetroMix 306 planting mixture, which typically has a pH of 6.0 to 6.8 and an organic matter content of about 30 percent, in plastic plug trays. Seedlings at the second or third leaf stage of growth were transplanted into 650 mL of mud contained in 960 mL non-perforated plastic pots with a surface area of 91.6 cm^2 four days prior to herbicide application. The paddy was created by filling the 3 cm headspace of the pots with water. […] Nutrients were added as Osmocote (17:6:10, Nitrogen:Phosphorus:Potassium (N:P:K)+minor nutrients) at 2 grams (g) per cup.
# For technical grade compounds and safeners, a weighed amount, determined by the highest rate to be tested, was placed in an individual 120 mL glass vial and was dissolved in 20 mL of acetone to obtain concentrated stock solutions. […] The concentrated stock solutions obtained were diluted with 20 mL of acetone. Applications were made by injecting an appropriate amount of the stock solution into the aqueous layer of the paddy. […] All treated plant material received the same concentration of acetone and crop oil concentrate.
# direct seeded rice = conditions: partner 70 g/ha alone
# [1] = No safener, 17.5 g ai/ha, after 3 weeks (Table 12)
# [2] = alone, 17.5 g ae/ha, after 3 weeks (Table 14)
smiles,measurement,setting,value
CCC(C)OC(=O)COc1ccc(Cl)c2cccnc12 (stereo not shown) [Cloquintocet 1-Methylpropyl Ester],Visual Injury (%) ECHCO Obs,ECHCO; 280 g ae/ha,0%
same,Visual Injury (%) CYPDI Obs,CYPDI; 280 g ae/ha,0%
same,Visual Injury (%) ‘Lemont’ ORYSA Obs,"ORYSA (rice); alone, 280 g ae/ha",0%
same,Visual Injury (%) SEBEX Obs,SEBEX; 280 g ae/ha,0%
"N#C/C(=N\OCC1OCCO1)c1ccccc1 [Oxabetrinil, (αZ)-α-[(1,3-dioxolan-2-yl)methoxyimino]-benzeneacetonitrile]",Visual Injury (%) ECHCO Obs,ECHCO; 35 g ai/ha,0%
same,Visual Injury (%) ECHCO Obs,ECHCO; 70 g ai/ha,0%
same,Visual Injury (%) ECHCO Obs,ECHCO; 140 g ai/ha,0%
same,Visual Injury (%) ECHCO Obs,ECHCO; 280 g ai/ha,0%
same,Visual Injury (%) CYPDI Obs,CYPDI; 35 g ai/ha,0%
same,Visual Injury (%) CYPDI Obs,CYPDI; 70 g ai/ha,0%
same,Visual Injury (%) CYPDI Obs,CYPDI; 140 g ai/ha,0%
same,Visual Injury (%) CYPDI Obs,CYPDI; 280 g ai/ha,0%
same,Visual Injury (%) ‘Lemont’ ORYSA Obs,"ORYSA (rice); alone, 35 g ai/ha",0%
same,Visual Injury (%) ‘Lemont’ ORYSA Obs,"ORYSA (rice); alone, 70 g ai/ha",15%
same,Visual Injury (%) ‘Lemont’ ORYSA Obs,"ORYSA (rice); alone, 140 g ai/ha",0%
same,Visual Injury (%) ‘Lemont’ ORYSA Obs,"ORYSA (rice); alone, 280 g ai/ha",10%
same,Visual Injury (%) SEBEX Obs,SEBEX; 35 g ai/ha,0%
same,Visual Injury (%) SEBEX Obs,SEBEX; 70 g ai/ha,0%
same,Visual Injury (%) SEBEX Obs,SEBEX; 140 g ai/ha,0%
same,Visual Injury (%) SEBEX Obs,SEBEX; 280 g ai/ha,0%
"Clc1cc(Cl)nc(-c2ccccc2)n1 [Fenclorim, 4,6-dichloro-2-phenylpyrimidine]",Visual Injury (%) ECHCO Obs,ECHCO; 35 g ai/ha,0%
same,Visual Injury (%) ECHCO Obs,ECHCO; 70 g ai/ha,0%
same,Visual Injury (%) ECHCO Obs,ECHCO; 140 g ai/ha,0%
same,Visual Injury (%) ECHCO Obs,ECHCO; 280 g ai/ha,0%
same,Visual Injury (%) CYPDI Obs,weed test plant species; safener 70 g ai/ha alone,0%
same,Visual Injury (%) CYPDI Obs,weed test plant species; safener 140 g ai/ha alone,0%
same,Visual Injury (%) CYPDI Obs,weed test plant species; safener 280 g ai/ha alone,0%
same,Visual Injury (%) MOOVA Obs,weed test plant species; safener 70 g ai/ha alone,0%
same,Visual Injury (%) MOOVA Obs,weed test plant species; safener 140 g ai/ha alone,0%
same,Visual Injury (%) MOOVA Obs,weed test plant species; safener 280 g ai/ha alone,0%
same,Visual Injury (%) CYPDI Obs,CYPDI; 35 g ai/ha,0%
same,Visual Injury (%) CYPDI Obs,CYPDI; 70 g ai/ha,0%
same,Visual Injury (%) CYPDI Obs,CYPDI; 140 g ai/ha,0%
same,Visual Injury (%) CYPDI Obs,CYPDI; 280 g ai/ha,0%
same,‘M202’ ORYSA Visual Injury (%) Obs,"ORYSA (rice); Safener Alone, 560 g ai/ha",6.7%
same,Visual Injury (%) ‘Lemont’ ORYSA Obs,"ORYSA (rice); alone, 35 g ai/ha",0%
same,Visual Injury (%) ‘Lemont’ ORYSA Obs,"ORYSA (rice); alone, 70 g ai/ha",0%
same,Visual Injury (%) ‘Lemont’ ORYSA Obs,"ORYSA (rice); alone, 140 g ai/ha",0%
same,Visual Injury (%) ‘Lemont’ ORYSA Obs,"ORYSA (rice); alone, 280 g ai/ha",0%
same,Visual Injury (%) SEBEX Obs,SEBEX; 35 g ai/ha,0%
same,Visual Injury (%) SEBEX Obs,SEBEX; 70 g ai/ha,0%
same,Visual Injury (%) SEBEX Obs,SEBEX; 140 g ai/ha,0%
same,Visual Injury (%) SEBEX Obs,SEBEX; 280 g ai/ha,0%
COC(=O)c1nc(-c2ccc(Cl)c(OC)c2F)cc(N)c1Cl [Compound 1 Methyl Ester],Visual Injury (%) ECHCO Obs,ECHCO; 17.5 g ae/ha,99%
same,Visual Injury (%) ECHCO Obs,ECHCO; 35 g ae/ha,99%
same,Visual Injury (%) ECHCO Obs,ECHCO; 35 g ai/ha,95% and 100%
same,Visual Injury (%) ECHCO Obs,ECHCO; 70 g ae/ha,100%
same,Visual Injury (%) ECHCO Obs,ECHCO; 70 g ai/ha,99% and 100%
same,Visual Injury (%) CYPDI Obs,CYPDI; 17.5 g ae/ha,100%
same,Visual Injury (%) CYPDI Obs,CYPDI; 35 g ae/ha,100%
same,Visual Injury (%) CYPDI Obs,CYPDI; 35 g ai/ha,100%
same,Visual Injury (%) CYPDI Obs,CYPDI; 70 g ae/ha,100%
same,Visual Injury (%) CYPDI Obs,CYPDI; 70 g ai/ha,100%
same,‘M202’ ORYSA Visual Injury (%) Obs,"ORYSA (rice); No safener, 17.5 g ai/ha",15.0%
same,ORYSA Visual Injury (%) ‘Cheniere’ Obs,ORYSA (rice); [1],20%
same,ORYSA Visual Injury (%) ‘Cocodrie’ Obs,ORYSA (rice); [1],13%
same,ORYSA Visual Injury (%) ‘M202’ Obs,ORYSA (rice); [1],45%
same,‘M202’ ORYSA Visual Injury (%) Obs,"ORYSA (rice); No safener, 35 g ai/ha",35.0%
same,Visual Injury (%) ‘Lemont’ ORYSA Obs,"ORYSA (rice); alone, 17.5 g ae/ha",15%
same,ORYSA Visual Injury (%) ‘Cheniere’ Obs,ORYSA (rice); [2],85%
same,ORYSA Visual Injury (%) ‘Clearfield’ Obs,ORYSA (rice); [2],45%
same,ORYSA Visual Injury (%) ‘Cocodrie’ Obs,ORYSA (rice); [2],55%
same,ORYSA Visual Injury (%) ‘Lemont’ Obs,ORYSA (rice); [2],40%
same,ORYSA Visual Injury (%) ‘M202’ Obs,ORYSA (rice); [2],25%
same,ORYSA Visual Injury (%) ‘Wells’ Obs,ORYSA (rice); [2],10%
same,Visual Injury (%) ‘Lemont’ ORYSA Obs,"ORYSA (rice); alone, 35 g ae/ha",35%
same,Visual Injury (%) ‘Lemont’ ORYSA Obs,"ORYSA (rice); alone, 70 g ae/ha",45%
same,Visual Injury (%) ‘Lemont’ ORYSA Obs,"ORYSA (rice); alone, 70 g ai/ha",50% and 25%
same,Visual Injury (%) SEBEX Obs,SEBEX; 17.5 g ae/ha,100%
same,Visual Injury (%) SEBEX Obs,SEBEX; 35 g ae/ha,100%
same,Visual Injury (%) SEBEX Obs,SEBEX; 35 g ai/ha,100%
same,Visual Injury (%) SEBEX Obs,SEBEX; 70 g ae/ha,100%
same,Visual Injury (%) SEBEX Obs,SEBEX; 70 g ai/ha,100%
CCOC(=O)COc1ccc(Cl)c2cccnc12 [Cloquintocet Ethyl Ester],Visual Injury (%) ECHCO Obs,ECHCO; 280 g ae/ha,0%
same,Visual Injury (%) CYPDI Obs,CYPDI; 280 g ae/ha,0%
same,Visual Injury (%) ‘Lemont’ ORYSA Obs,"ORYSA (rice); alone, 280 g ae/ha",0%
same,Visual Injury (%) SEBEX Obs,SEBEX; 280 g ae/ha,0%
COC(=O)COc1ccc(Cl)c2cccnc12 [Cloquintocet Methyl Ester],Visual Injury (%) ECHCO Obs,ECHCO; 280 g ae/ha,0%
same,Visual Injury (%) CYPDI Obs,CYPDI; 280 g ae/ha,0%
same,Visual Injury (%) ‘Lemont’ ORYSA Obs,"ORYSA (rice); alone, 280 g ae/ha",0%
same,Visual Injury (%) SEBEX Obs,SEBEX; 280 g ae/ha,0%
CNc1cnn(-c2cccc(C(F)(F)F)c2)c(=O)c1Cl [Norflurazon],ORYSA Visual Injury (%) ‘M202’ Obs,direct seeded rice,15%
